Results taken from the NIST ThermoML archive (doi:10.1021/je300799f).

Test: xn = mol fraction of the nth substance listed
Settings: 101 kPa, Liquid, Vibrating tube method

CCCC(=O)OC [methyl butanoate] + CCCCCCCCC
Settings | mass density [kg/m3]
288.15 K, x1 = 0.0544 | 727.14
288.15 K, x1 = 0.0804 | 729.99
288.15 K, x1 = 0.1647 | 739.66
288.15 K, x1 = 0.2172 | 746.06
288.15 K, x1 = 0.2378 | 748.63
288.15 K, x1 = 0.2963 | 756.43
288.15 K, x1 = 0.3419 | 762.85
288.15 K, x1 = 0.3986 | 771.19
288.15 K, x1 = 0.4425 | 778.04
288.15 K, x1 = 0.5007 | 787.63
288.15 K, x1 = 0.5488 | 796.09
288.15 K, x1 = 0.604 | 806.21
288.15 K, x1 = 0.6553 | 816.39
288.15 K, x1 = 0.6959 | 824.67
288.15 K, x1 = 0.7507 | 836.81
288.15 K, x1 = 0.8114 | 850.96
288.15 K, x1 = 0.8553 | 862.13
288.15 K, x1 = 0.8988 | 873.46
288.15 K, x1 = 0.9507 | 888.13
288.15 K, x1 = 1 | 903.31
298.15 K, x1 = 0.0495 | 718.76
298.15 K, x1 = 0.0998 | 724.04
298.15 K, x1 = 0.1729 | 732.49
298.15 K, x1 = 0.1935 | 734.88
298.15 K, x1 = 0.2473 | 741.54
298.15 K, x1 = 0.3035 | 748.92
298.15 K, x1 = 0.3558 | 756.23
298.15 K, x1 = 0.4462 | 769.69
298.15 K, x1 = 0.5497 | 786.99
298.15 K, x1 = 0.6465 | 805.02
298.15 K, x1 = 0.7509 | 826.86
298.15 K, x1 = 0.7772 | 832.78
298.15 K, x1 = 0.8038 | 839.14
298.15 K, x1 = 0.9052 | 864.6
298.15 K, x1 = 0.953 | 878.19
298.15 K, x1 = 1 | 892.31
308.15 K, x1 = 0.0554 | 711.45
308.15 K, x1 = 0.1002 | 716.1
308.15 K, x1 = 0.1653 | 723.29
308.15 K, x1 = 0.2108 | 728.63
308.15 K, x1 = 0.2545 | 734.04
308.15 K, x1 = 0.3082 | 740.93
308.15 K, x1 = 0.3598 | 748.08
308.15 K, x1 = 0.409 | 755.11
308.15 K, x1 = 0.4594 | 762.76
308.15 K, x1 = 0.4993 | 769.14
308.15 K, x1 = 0.5504 | 777.76
308.15 K, x1 = 0.6001 | 786.6
308.15 K, x1 = 0.6482 | 795.68
308.15 K, x1 = 0.6945 | 804.91
308.15 K, x1 = 0.7463 | 815.78
308.15 K, x1 = 0.7964 | 827.07
308.15 K, x1 = 0.8451 | 838.68
308.15 K, x1 = 0.8948 | 851.33
308.15 K, x1 = 0.9497 | 866.34
308.15 K, x1 = 1 | 881.19
318.15 K, x1 = 0.0234 | 700.32
318.15 K, x1 = 0.0731 | 705.17
318.15 K, x1 = 0.1033 | 708.28
318.15 K, x1 = 0.1552 | 713.83
318.15 K, x1 = 0.1993 | 718.91
318.15 K, x1 = 0.2571 | 725.77
318.15 K, x1 = 0.3123 | 732.79
318.15 K, x1 = 0.3568 | 738.79
318.15 K, x1 = 0.4135 | 746.74
318.15 K, x1 = 0.4555 | 753.07
318.15 K, x1 = 0.5093 | 761.51
318.15 K, x1 = 0.5565 | 769.3
318.15 K, x1 = 0.6043 | 777.7
318.15 K, x1 = 0.6544 | 787.04
318.15 K, x1 = 0.7067 | 797.4
318.15 K, x1 = 0.7541 | 807.31
318.15 K, x1 = 0.8037 | 818.4
318.15 K, x1 = 0.8594 | 831.69
318.15 K, x1 = 0.9068 | 843.76
318.15 K, x1 = 0.9511 | 855.91
318.15 K, x1 = 1 | 870.06
328.15 K, x1 = 0.0272 | 692.57
328.15 K, x1 = 0.0562 | 695.34
328.15 K, x1 = 0.078 | 697.49
328.15 K, x1 = 0.1041 | 700.12
328.15 K, x1 = 0.1502 | 704.97
328.15 K, x1 = 0.2023 | 710.73
328.15 K, x1 = 0.2654 | 718.16
328.15 K, x1 = 0.3073 | 723.36
328.15 K, x1 = 0.3624 | 730.61
328.15 K, x1 = 0.412 | 737.45
328.15 K, x1 = 0.4567 | 744
328.15 K, x1 = 0.5083 | 751.95
328.15 K, x1 = 0.5549 | 759.51
328.15 K, x1 = 0.6157 | 770.1
328.15 K, x1 = 0.6554 | 777.42
328.15 K, x1 = 0.7027 | 786.49
328.15 K, x1 = 0.749 | 795.99
328.15 K, x1 = 0.8511 | 819.04
328.15 K, x1 = 0.9051 | 832.64
328.15 K, x1 = 0.9506 | 844.76
328.15 K, x1 = 1 | 858.8

CCCC(=O)OCC [ethyl butanoate] + CCCCCCC
Settings | mass density [kg/m3]
288.15 K, x1 = 0.0502 | 696.39
288.15 K, x1 = 0.0918 | 703.35
288.15 K, x1 = 0.1473 | 712.8
288.15 K, x1 = 0.2022 | 722.42
288.15 K, x1 = 0.2465 | 730.35
288.15 K, x1 = 0.288 | 737.84
288.15 K, x1 = 0.3987 | 758.41
288.15 K, x1 = 0.4488 | 767.94
288.15 K, x1 = 0.5008 | 778.03
288.15 K, x1 = 0.5456 | 786.84
288.15 K, x1 = 0.6023 | 798.22
288.15 K, x1 = 0.6584 | 809.63
288.15 K, x1 = 0.6999 | 818.26
288.15 K, x1 = 0.7486 | 828.54
288.15 K, x1 = 0.8042 | 840.42
288.15 K, x1 = 0.8481 | 850.01
288.15 K, x1 = 0.901 | 861.58
288.15 K, x1 = 0.9347 | 869.11
288.15 K, x1 = 0.9527 | 873.2
288.15 K, x1 = 1 | 884.01
298.15 K, x1 = 0.0522 | 688.18
298.15 K, x1 = 0.0904 | 694.54
298.15 K, x1 = 0.1404 | 703.05
298.15 K, x1 = 0.1901 | 711.58
298.15 K, x1 = 0.2539 | 722.68
298.15 K, x1 = 0.2962 | 730.22
298.15 K, x1 = 0.3543 | 740.87
298.15 K, x1 = 0.4 | 749.31
298.15 K, x1 = 0.443 | 757.44
298.15 K, x1 = 0.5517 | 778.51
298.15 K, x1 = 0.6018 | 788.45
298.15 K, x1 = 0.648 | 797.84
298.15 K, x1 = 0.6976 | 808.02
298.15 K, x1 = 0.7463 | 818.17
298.15 K, x1 = 0.7884 | 827.06
298.15 K, x1 = 0.8473 | 839.64
298.15 K, x1 = 0.9054 | 852.26
298.15 K, x1 = 0.9524 | 862.74
298.15 K, x1 = 1 | 873.5
308.15 K, x1 = 0.0461 | 678.42
308.15 K, x1 = 0.0952 | 686.44
308.15 K, x1 = 0.1445 | 694.69
308.15 K, x1 = 0.2034 | 704.7
308.15 K, x1 = 0.2497 | 712.78
308.15 K, x1 = 0.3081 | 723.17
308.15 K, x1 = 0.3441 | 729.57
308.15 K, x1 = 0.406 | 741.01
308.15 K, x1 = 0.4563 | 750.35
308.15 K, x1 = 0.5053 | 759.76
308.15 K, x1 = 0.5505 | 768.46
308.15 K, x1 = 0.6038 | 778.99
308.15 K, x1 = 0.6498 | 788.17
308.15 K, x1 = 0.7026 | 798.87
308.15 K, x1 = 0.7544 | 809.6
308.15 K, x1 = 0.788 | 816.69
308.15 K, x1 = 0.8424 | 828.13
308.15 K, x1 = 0.9009 | 840.82
308.15 K, x1 = 0.9512 | 851.86
308.15 K, x1 = 1 | 862.85
318.15 K, x1 = 0.0532 | 670.78
318.15 K, x1 = 0.095 | 677.56
318.15 K, x1 = 0.1397 | 684.91
318.15 K, x1 = 0.2087 | 696.59
318.15 K, x1 = 0.2565 | 704.87
318.15 K, x1 = 0.3048 | 713.3
318.15 K, x1 = 0.3608 | 723.3
318.15 K, x1 = 0.4046 | 731.26
318.15 K, x1 = 0.4532 | 740.3
318.15 K, x1 = 0.5065 | 750.34
318.15 K, x1 = 0.5517 | 759.04
318.15 K, x1 = 0.6007 | 768.46
318.15 K, x1 = 0.6492 | 778.12
318.15 K, x1 = 0.6934 | 787.02
318.15 K, x1 = 0.739 | 796.28
318.15 K, x1 = 0.7947 | 807.72
318.15 K, x1 = 0.8554 | 820.65
318.15 K, x1 = 0.8861 | 827.23
318.15 K, x1 = 0.9515 | 841.48
318.15 K, x1 = 1 | 852.26
328.15 K, x1 = 0.0535 | 662.06
328.15 K, x1 = 0.0975 | 669.12
328.15 K, x1 = 0.1485 | 677.41
328.15 K, x1 = 0.1785 | 682.4
328.15 K, x1 = 0.2367 | 692.21
328.15 K, x1 = 0.3034 | 703.69
328.15 K, x1 = 0.359 | 713.56
328.15 K, x1 = 0.4538 | 730.76
328.15 K, x1 = 0.5087 | 741
328.15 K, x1 = 0.5511 | 749.04
328.15 K, x1 = 0.6093 | 760.27
328.15 K, x1 = 0.6471 | 767.65
328.15 K, x1 = 0.6967 | 777.52
328.15 K, x1 = 0.739 | 786.07
328.15 K, x1 = 0.7999 | 798.54
328.15 K, x1 = 0.8397 | 806.83
328.15 K, x1 = 0.9086 | 821.54
328.15 K, x1 = 0.9533 | 831.27
328.15 K, x1 = 1 | 841.55
